Experimental data as given in US8099262B2, “Estimation of clinical cut-offs” (priority 2004, dated 2012).

How the values were obtained:
HIV [1] = format: in vivo
Text: Further factors which may be taken into account when validating the model are the odds ratios determined using clinical cutoffs compared to those determined using biological cutoffs. These ratios represent the odds of being a responder in the group that is labeled resistant by the cutoffs divided by the odds of being a responder in the group that is labeled sensitive by the cutoffs. In this way it is possible to evaluate how well the cutoffs perform on a drug by drug basis. The further away that the odds ratio is from 1, the stronger the correlation between the resistance class and clinical outcome. The odds ratio as specified above yield numbers smaller than 1 as the odds of being a responder should be smaller in the higher resistance class. Put another way, the probability of response will decrease as the resistance increases. Additionally, if the odds ratio for the CCO is smaller than the odds ratio for the BCO, it can be concluded that the CCO is stronger correlated with clinical outcome and therefore gives a better prediction than the BCO.
(§1) A logistic regression model may be used to determine the odds ratio. The model used is the same as the logistic regression model described above except that the fold change in the model is replaced by the resistance class. The coefficient for the resistance class that is obtained from the model is the log (odds ratio). The advantage of using this model is that the odds ratio estimates can be adjusted for the baseline viral load and the cPSS score of the background regimen.
The columns headed CCO Odds Ratio and BCO Odds Ratio represent the odds of being a responder in the group that is labeled resistance by the cutoffs divided by the odds of being a responder in the group that is labeled sensitive by the cutoffs. For example, if there are four non-responders and one responder in the resistant group, and four responders and two non-responders in the sensitive group, the odds of being a responder in the resistant group is 1:4=0.25 and the odds of being a responder in the sensitive group is 4:2=2. […] The further away that the odds ratio is from 1, the stronger the correlation between the resistance class and clinical outcome.
The separation in groups (resistance/sensitive) can be done based on clinical cutoffs or biological cutoffs. This means that odds ratios based on clinical cutoffs (CCO) and odds ratios based on biological cutoffs (BCO) can be compared. If the odds ratio for the CCO is smaller than the odds ratio for the BCO, it can be concluded that the CCO gives a better prediction than the BCO.
as §1, with “In practice, a” for “A”, “is” for “may be”, “similar to” for “the same as the”, “earlier” for “above”, “regimen. […] In this case, a larger odds ratio indicates a stronger correlation with clinical outcome.” for “regimen.”

HIV [2] = format: in vivo; design: key to Modelled Lower Cutoff & Confidence Interval / Modelled Upper Cutoff & Confidence Interval: fold change (FC) matching VL drop at 20% and 80% loss of activity; conditions: preferred embodiment of linear regression
Text: In a preferred embodiment of the linear regression model, more factors are included in order to obtain a more refined prediction of viral load response. These factors include for example a sensitivity score per drug class in addition to the overall sensitivity score of the background treatment (cPSS), previous exposure to the drug (naïve (Yes/No), naïve to PIs, naïve to NRTI's, etc. . . . ). Furthermore, in the preferred embodiment, the fold change is transformed before inserting the figures into the model. The transformation to the fold change comprises a power-transformation ranging from FC^−3 to FC^1. In addition, a quadratic term in cPSS is preferably added.
The NRTI[naïve] value represents whether the patient is naïve to nucleoside RT inhibitors. If yes, value=1, if no, value=0. The PSS[NRTI} represents the phenotypic sensitivity score for NRTIs, i.e the number of active NRTIs in the background regimen for the patient.
Stage 3: Determine Fold change equivalent to VL drop at 20% and 80% loss of activity by inserting values for VL drop into the above equation and calculating FC. […]

CC(C)OC(=O)OCOP(=O)(CO[C@H](C)Cn1cnc2c(N)ncnc21)OCOC(=O)OC(C)C.O=C(O)/C=C/C(=O)O [TDF]
Test Data BCO Odds Ratio (HIV [1]; test data, biological cutoffs): 0.570 | Test Data CCO Odds Ratio (HIV [1]; test data, clinical cutoffs): 0.228 | Validation Data CCO Odds Ratio (HIV [1]; validation data, clinical cutoffs): 0.226 | Modelled Lower Cutoff & Confidence Interval (HIV [2]): 1.0 | Modelled Upper Cutoff & Confidence Interval (HIV [2]): 2.0
